Assay results reported in patent US20260224486A1, “DIANHYDROHEXITOL BASED IONIZABLE LIPIDS FOR NUCLEIC ACID DELIVERY” (SANOFI PASTEUR INC., priority 2023, published 2026).

What was measured:
[1] = mRNA encapsulation efficiency of lipid nanoparticles (RiboGreen assay); type: physicochemical; conditions: hEPO mRNA LNP, Process A, Cationic Lipid:DMG-PEG2000:Cholesterol:DOPE 40:1.5:28.5:30 mol %, N/P 4
Excerpt: In embodiments, the lipid nanoparticle encapsulates a nucleic acid, optionally an mRNA encoding a peptide or protein. In embodiments, the lipid nanoparticle encapsulates an mRNA encoding a peptide or protein, optionally for use in a vaccine. In embodiments, the peptide is an antigen. As used herein, the phrase “encapsulation percentage” refers to the fraction of therapeutic agent (e.g. mRNA) that is effectively encapsulated within a liposomal-based vehicle (e.g. a lipid nanoparticle) relative to the initial fraction of therapeutic agent present in the lipid phase. In embodiments, the lipid nanoparticles have an encapsulation percentage for mRNA of at least 50%. In embodiments, the lipid nanoparticles have an encapsulation percentage for mRNA of at least 55%. In embodiments, the lipid nanoparticles have an encapsulation percentage for mRNA of at least 60%. In embodiments, the lipid nanoparticles have an encapsulation percentage for mRNA of at least 65%. In embodiments, the lipid nanoparticles have an encapsulation percentage for mRNA of at least 70%. In embodiments, the lipid nanoparticles have an encapsulation percentage for mRNA of at least 75%. In embodiments, the lipid nanoparticles have an encapsulation percentage for mRNA of at least 80%. In embodiments, the lipid nanoparticles have an encapsulation percentage for mRNA of at least 85%. In embodiments, the lipid nanoparticles have an encapsulation percentage for mRNA of at least 90%. In embodiments, the lipid nanoparticles have an encapsulation percentage for mRNA of at least 95%. In embodiments, the encapsulation percentage is calculated by performing the Ribogreen assay (Invitrogen) with and without the presence of 0.1% Triton-X 100.
(§1) Lipid nanoparticle formulations of Table 1 were prepared by Process A. All of the lipid nanoparticle formulations comprised hEPO mRNA and the different lipids (Cationic Lipid: DMG-PEG2000: Cholesterol: DOPE) in mol % ratios of 40:1.5:28.5:30 (Cationic Lipid: DMG-PEG2000: Cholesterol: DOPE).
The RiboGreen Assay is a fluorescence-based method for the determination of mRNA concentration (Total and Free) and % encapsulation using Quant-iT™ RiboGreen® RNA reagent in mRNA containing lipid nanoparticles.
• To each of the standards (Blank, mRNA-1, mRNA-2. mRNA-3, mRNA-4, mRNA-5) and Samples (free mRNA and total mRNA), add 1.0 mL of 200-fold Ribogreen Reagent Solution and gently mix by inversion. This is a 2× Dilution. • Add 200 μL of each standard and sample in triplicate using the reverse pipetting technique in a 96-well Costar Black with Clear Background Plate. Ensure no bubbles are present in the plate before the fluorescence reading. • Read the fluorescence signal using the below instrument parameters: • Read Type: Fluorescence, Bottom Read • Excitation: 485 nm; Cut-off: 515 nm; Emission: 530 nm • Plate Type: 96-well Costar Black with Clear Background
The average fluorescence from each calibration standard is plotted against the concentration to generate a linear calibration curve using the MS Excel software. The coefficient of determination (R^2) of calibration curve must be R^2>0.99.
[formula] • Where, • Y=average fluorescence value • m: slope • x: concentration (pg/mL) • c: y-intercept • Using the linear equation, calculate the concentration of free and total mRNA concentration in the test sample by replacing the y value in the equation with the average fluorescence value of each respective sample • Once the concentration is determined, the actual concentration in the sample can be back-calculated by multiplying the concentration in the test sample with the dilution factor (DF) as follows:
[formula] [formula] • Concentration of encapsulated mRNA can be determined by subtracting the concentration of free mRNA from the total mRNA. • % Encapsulation can then be calculated by taking the ratio of encapsulated mRNA over total mRNA and multiplying the result with 100.

BALB/cJ mice = experiment: Delivery of hEPO mRNA by intramuscular administration of LNPs; serum hEPO by ELISA; type: in vivo, Mouse; conditions: for hEPO 6 Hr (ng/ml) Mean: Table 2, isosorbide-derived lipids; for hEPO 6 Hr (ng/ml) Mean / hEPO 6 Hr (ng/mL) Mean: mouse serum 6 hours post single IM injection of 0.1 μg hEPO mRNA LNP; for hEPO 6 Hr (ng/mL) Mean / hEPO 24 Hr (ng/ml) Mean: Table 3, isomannide-derived lipids; for hEPO 24 Hr (ng/ml) Mean: mouse serum 24 hours post single IM injection of 0.1 μg hEPO mRNA LNP
Experimental: In summary, lipid screening studies were conducted with female BALB/cJ mice 6-8 weeks of age. Mice were dosed with 0.1 μg in 30 μL of LNPs by a single intramuscular (IM) injection into the gastrocnemius leg muscle. Blood samples were taken 6 and 24 hours post injection and hEPO levels were measured in the blood serum of the mice using an ELISA assay according to the manufacture's protocol.
Treatment Regimen: On Day 1, animals from Groups 1-33 were dosed via intramuscular injection while under light isoflurane anesthesia according to the study design table above. Animals in Groups 1-33 were injected with EPO mRNA LNPs in the right leg only. Groups 1 and 17 animals received MC3 control.
Interim Sample Collections: Interim whole blood (^~50 μL) was collected by tail snip or saphenous vein at 6 and 24 hours post dose administration (±5%). Blood samples were collected into serum separator tubes, allowed to clot at room temperature for at least 10 minutes, centrifuged at ambient temperature at minimum 1000 g for 10 minutes and the serum was extracted. All serum samples were stored at nominally −70° C. until analysis hEPO by the Testing Facility. The results of the EPO analysis were included in the Data Submission.
Terminal Blood Collections: Whole blood was collected via cardiac puncture into serum separator tube, allowed to clot at room temperature for at least 10 minutes, centrifuged at ambient temperature at minimum 1000 g for 10 minutes and the serum was extracted. Serum samples were stored at nominally −70° C. until analyzed for hEPO by the Test Facility.
ELISA Assay: Human erythropoietin (hEPO) levels in sera samples were determined by ELISA kit (R&D systems, Cat #DEP-00) according to the manufactory instruction and the results were included in the Data Submission. The “shaker” protocol was used. The serum samples were diluted between 1:40 and 1:100.

[2] = Lipid nanoparticle size and polydispersity index by dynamic light scattering (Malvern Zetasizer); type: physicochemical; conditions: hEPO mRNA LNP, Process A, Cationic Lipid:DMG-PEG2000:Cholesterol:DOPE 40:1.5:28.5:30 mol %, N/P 4
Excerpt: The lipid nanoparticles in the examples of the present invention were formulated using Process A of WO 2018/089801 (see, e.g., Example 1 and FIG. 1 of WO 2018/089801). Process A (“A”) relates to a conventional method of encapsulating mRNA by mixing mRNA with a mixture of lipids, without first pre-forming the lipids into lipid nanoparticles. In an exemplary process, an ethanolic solution of a mixture of lipids (cationic lipid, phosphatidylethanolamine, cholesterol, and polyethylene glycol-lipid) at a fixed lipid to mRNA ratio were combined with an aqueous buffered solution of target mRNA at an acidic pH under controlled conditions to yield a suspension of uniform LNPs. After ultrafiltration and diafiltration into a suitable diluent system, the resulting nanoparticle suspensions were diluted to final concentration, filtered, and stored frozen at −80° C. until use.
as §1
The Polydispersity Index (Pdl) of lipid nanoparticles can be determined by diluting the formulation in 10% trehalose at about 0.1 mg/ml mRNA concentration and then measuring the size on Malvern zetasizer. The lipid nanoparticle size can be obtained with Malvern Zetasizer Nano-ZS.
Dynamic light scattering (DLS) measurements were performed using a Malvern Instruments Zetasizer with a backscattering detector angle of 173° and a 4-mW, 633-nm He—Ne laser (Worcestershire, UK). The samples were analyzed by diluting in 10% Trehalose and measuring the size and Poly dispersity Index (PDI) in an optical grade polystyrene cuvette.

Row | SMILES | Encapsulation efficiency (EE) % [1] | Polydispersity Index (PDI) [2] | Size (nm) [2] | hEPO 6 Hr (ng/ml) Mean (BALB/cJ mice) | hEPO 6 Hr (ng/mL) Mean (BALB/cJ mice) | hEPO 24 Hr (ng/ml) Mean (BALB/cJ mice)
1 | CCCCCCCCC(O)CN(CCCC(=O)O[C@@H]1CO[C@H]2[C@@H]1OC[C@H]2OC(=O)CCCN(CC(O)CCCCCCCC)CC(O)CCCCCCCC)CC(O)CCCCCCCC (stereo partly drawn) [Compound 1] | 85% | 0.14 | 93 nm |  | 42.5 ng/mL | 
2 | CCCCCCCCCCC(O)CN(CCCCC(=O)O[C@@H]1CO[C@H]2[C@@H]1OC[C@H]2OC(=O)CCCCN(CC(O)CCCCCCCCCC)CC(O)CCCCCCCCCC)CC(O)CCCCCCCCCC (stereo partly drawn) [Compound 4] | 94% | 0.16 | 78 nm |  | 43.2 ng/mL | 
3 | CCCCCCCCCCCCC(O)CN(CCCCC(=O)O[C@@H]1CO[C@H]2[C@@H]1OC[C@H]2OC(=O)CCCCN(CC(O)CCCCCCCCCCCC)CC(O)CCCCCCCCCCCC)CC(O)CCCCCCCCCCCC (stereo partly drawn) [Compound 5] | 75% | 0.11 | 107 nm |  | 26.3 ng/mL | 
4 | CCCCCCCCCCCCCCC(O)CN(CCCC(=O)O[C@@H]1CO[C@H]2[C@@H]1OC[C@H]2OC(=O)CCCN(CC(O)CCCCCCCCCCCCCC)CC(O)CCCCCCCCCCCCCC)CC(O)CCCCCCCCCCCCCC (stereo partly drawn) [Compound 6] | 99% | 0.16 | 114 nm |  | 40.9 ng/mL | 
5 | CCCCCCCCCCCOC(=O)CCCC(O)CN(CCCC(=O)O[C@@H]1CO[C@H]2[C@@H]1OC[C@H]2OC(=O)CCCN(CC(O)CCCCCC(=O)OC(CCCCCCCC)CCCCCCCC)CC(O)CCCC(=O)OCCCCCCCCCCC)CC(O)CCCCCC(=O)OC(CCCCCCCC)CCCCCCCC (stereo partly drawn) [Compound 11] | 94% | 0.1 | 120 nm |  | 36 ng/mL | 
6 | CCCCCC/C=C\COC(=O)CCCCCC(O)CN(CCCC(=O)O[C@@H]1CO[C@H]2[C@@H]1OC[C@H]2OC(=O)CCCN(CC(O)CCCCCC(=O)OC/C=C\CCCCCC)CC(O)CCCCCC(=O)OC/C=C\CCCCCC)CC(O)CCCCCC(=O)OC/C=C\CCCCCC (stereo partly drawn) [Compound 16] | 77% | 0.11 | 84 nm |  | 9.4 ng/mL | 
7 | CCCCCCCCC(O)CN(CCCC(=O)O[C@H]1CO[C@H]2[C@@H]1OC[C@H]2OC(=O)CCCN(CC(O)CCCCCCCC)CC(O)CCCCCCCC)CC(O)CCCCCCCC (stereo partly drawn) [Compound 20] | 89% | 0.13 | 95 nm | 25.2 ng/mL |  | 

Now from value to compound, other results behind:

Row | Encapsulation efficiency (EE) % [1] | Polydispersity Index (PDI) [2] | Size (nm) [2] | SMILES | hEPO 6 Hr (ng/ml) Mean (BALB/cJ mice) | hEPO 6 Hr (ng/mL) Mean (BALB/cJ mice) | hEPO 24 Hr (ng/ml) Mean (BALB/cJ mice)
8 | 94% | 0.2 | 94 nm | CCCCCCCCCCCOC(=O)CCCC(O)CN(CCCC(=O)O[C@@H]1CO[C@H]2[C@@H]1OC[C@@H]2OC(=O)CCCN(CC(O)CCCCCCCCCC)CC(O)CCCCCCCCCC)CC(O)CCCCCC(=O)OC(CCCCCCCC)CCCCCCCC (stereo in doubt) [Compound 32] | 33.2 ng/mL |  | 
9 | 68% | 0.16 | 77 nm | CCCCCCCCC(O)CN(CCCCC(=O)O[C@@H]1CO[C@H]2[C@@H]1OC[C@H]2OC(=O)CCCCN(CC(O)CCCCCCCC)CC(O)CCCCCCCC)CC(O)CCCCCCCC (stereo partly drawn) [Compound 2] |  | 36.3 ng/mL | 
10 | 95% | 0.13 | 91 nm | CCCCCCCCCCCCCCC(O)CN(CCCC(=O)O[C@@H]1CO[C@H]2[C@@H]1OC[C@H]2OC(=O)CCCCN(CC(O)CCCCCCCCCC)CC(O)CCCCCCCCCC)CC(O)CCCCCCCCCCCCCC (stereo partly drawn) [Compound 8] |  | 25.7 ng/mL | 
11 | 91% | 0.1 | 114 nm | CCCCCCCCCCCOC(=O)CCCC(O)CN(CCCC(=O)O[C@@H]1CO[C@H]2[C@@H]1OC[C@H]2OC(=O)CCCN(CC(O)CCCCCCCCCC)CC(O)CCCCCCCCCC)CC(O)CCCCCC(=O)OC(CCCCCCCC)CCCCCCCC (stereo partly drawn) [Compound 9] |  | 30.7 ng/mL | 19.8 ng/mL
12 | 91% | 0.11 | 88 nm | CCCCCC/C=C\COC(=O)CCCCCC(O)CN(CCCC(=O)O[C@@H]1CO[C@H]2[C@@H]1OC[C@H]2OC(=O)CCCN(CC(O)CCCCCCCCCC)CC(O)CCCCCCCCCC)CC(O)CCCCCC(=O)OC/C=C\CCCCCC (stereo partly drawn) [Compound 15] |  | 22.8 ng/mL | 
13 | 74% | 0.13 | 94 nm | CCCCCCCCCCC(O)CN(CCCC(=O)O[C@@H]1CO[C@H]2[C@@H]1OC[C@H]2OC(=O)CCCN(CC(O)CCCCCC(=O)OC(CCCCCCCC)CCCCCCCC)CC1CCCC(=O)O1)CC(O)CCCCCCCCCC (stereo partly drawn) [Compound 19] |  | 10.7 ng/mL | 5.35 ng/mL
